These are literature values, as cited in patent publication US20060100214A1, “Fast dissolving and taste masked oral dosage form comprising sildenafil” (priority 2002, published 2006).

Regarding `CCCc1nn(C)c2c(=O)[nH]c(-c3cc(S(=O)(=O)N4CCN(C)CC4)ccc3OCC)nc12.O=C(O)CC(O)(CC(=O)O)C(=O)O` [Sildenafil citrate, 1-[[3-(6,7-dihydro-1-methyl-7-oxo-3-propyl-1H-pyrazolo[4,3-d]pyrimidin-5-yl)-4-ethoxyphenyl]sulfonyl]-4-methylpiperazine citrate], the maximal solubility result (at pH2.0) is “approximately 24 mg/ml”.
Consider `CCCc1nn(C)c2c(=O)[nH]c(-c3cc(S(=O)(=O)N4CCN(C)CC4)ccc3OCC)nc12` [sildenafil free base, 1-[[3-(6,7-dihydro-1-methyl-7-oxo-3-propyl-1H-pyrazolo[4,3-d]pyrimidin-5-yl)-4-ethoxyphenyl]sulfonyl]-4-methylpiperazine], for which the water solubility entry (as said in US 20020002172A1) was “very low water solubility”.
